Measurements reported in ChEMBL document CHEMBL1201862, “PubChem BioAssay data set” (2004).
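Results reflect a 48-hour exposure of cells in 96-well plates to compound at five concentrations. GI50 marks 50% less growth.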 Activity calls are given as the source filed them. No stated cut-off is given here; in the data, active = GI50 up to about 1.1 µM and inactive = higher.

What was measured:
Assay in all cases: growth of human tumour cells (NCI), 48 h
[1] = tested on: KM12
[2] = tested on: T47D
[3] = tested on: HL-60
[4] = tested on: M14
[5] = tested on: SK-OV-3
[6] = tested on: CAKI-1
[7] = tested on: Hs-578T
[8] = tested on: HCC 2998
[9] = tested on: OVCAR-8
[10] = tested on: K562
[11] = tested on: MDA-N
[12] = tested on: KM-20L2
[13] = tested on: HCT-15
[14] = tested on: NCI-H460
[15] = tested on: A549
[16] = tested on: IGROV-1
[17] = tested on: NCI-H23
[18] = tested on: HCT-116
[19] = tested on: HOP-92
[20] = tested on: M19-MEL

SMILES | GI50 [1] | GI50 [2] | GI50 [3] | GI50 [4] | GI50 [5] | GI50 [6] | GI50 [7] | GI50 [8] | GI50 [9] | GI50 [10] | GI50 [11] | GI50 [12] | GI50 [13] [µM] | GI50 [14] | GI50 [15] | GI50 [16] | GI50 [17] | GI50 [18] | GI50 [19] | GI50 [20]
O=CC(NC(=O)N(CCCl)N=O)C(O)C(O)C(O)CO (configuration not stated) | > 1250 µM (inactive) | 679 µM (inactive) | 287 µM (inactive) | 748 µM (inactive) | > 1160 µM (inactive) | 798 µM (inactive) | > 955 µM (inactive) | > 1030 µM (inactive) | 1160 µM (inactive) | 575 µM (inactive) | 312 µM (inactive) | > 1250 µM (inactive) | 1190 | 272 µM (inactive) | 753 µM (inactive) | 1000 µM (inactive) | 993 µM (inactive) |  |  | 
CS(=O)(=O)c1ccc(C2=C(c3ccccc3)C(=O)OC2)cc1 [ROFECOXIB] | > 100 µM (inactive) | > 100 µM (inactive) | > 100 µM (inactive) | > 100 µM (inactive) | > 100 µM (inactive) | > 100 µM (inactive) | > 100 µM (inactive) | > 100 µM (inactive) | > 100 µM (inactive) | > 100 µM (inactive) | > 100 µM (inactive) |  | > 100 | > 100 µM (inactive) | > 100 µM (inactive) | > 100 µM (inactive) | > 100 µM (inactive) | > 100 µM (inactive) | > 100 µM (inactive) | 
COC(=O)/C=C(/C(=O)OC)c1c(C)cc2c(C)cc(C)cc(C)c1-2 | 5.11 µM (inactive) | 44.1 µM (inactive) | 4.13 µM (inactive) | 8.28 µM (inactive) | 21.5 µM (inactive) | 32.6 µM (inactive) | 11 µM (inactive) | 16.4 µM (inactive) | 25.4 µM (inactive) | 4.45 µM (inactive) | 2.4 µM (inactive) |  | 4.56 | 19.9 µM (inactive) | 14.9 µM (inactive) | 23.3 µM (inactive) | 18.5 µM (inactive) | 4.26 µM (inactive) | 31.6 µM (inactive) | 
O=C(CC1(O)C(=O)Nc2ccc(Br)cc21)c1ccc(Cl)cc1Cl (configuration not stated) | 52.6 µM (inactive) |  | 19.1 µM (inactive) | 34.8 µM (inactive) | 79.1 µM (inactive) |  |  | 91.8 µM (inactive) | 47.9 µM (inactive) | 39.6 µM (inactive) |  | > 100 µM (inactive) | 69 | 49.8 µM (inactive) | 92 µM (inactive) | 51.4 µM (inactive) | 53.2 µM (inactive) | 31.8 µM (inactive) |  | 14.9 µM (inactive)
COc1cccc(OCC(=N/NC(=O)c2ccncc2)/N=C/c2cccnc2)c1 | > 100 µM (inactive) | > 100 µM (inactive) | > 100 µM (inactive) | > 100 µM (inactive) | > 100 µM (inactive) | > 100 µM (inactive) | > 100 µM (inactive) | > 100 µM (inactive) | 86.3 µM (inactive) | > 100 µM (inactive) | > 100 µM (inactive) |  | > 100 | > 100 µM (inactive) | > 100 µM (inactive) | > 100 µM (inactive) | > 100 µM (inactive) | > 100 µM (inactive) | 21 µM (inactive) | 
CCC1(O)C(=O)OCc2c1cc1n(c2=O)Cc2cc3cc(N)ccc3nc2-1 (configuration not stated) | 0.0593 µM (active) | < 0.01 µM (active) | < 0.01 µM (active) | < 0.01 µM (active) | < 0.01 µM (active) | < 0.01 µM (active) | 1.42 µM (inactive) | 0.0345 µM (active) | < 0.0128 µM (active) | < 0.0127 µM (active) | 0.0232 µM (active) |  | 0.0721 | < 0.01 µM (active) | 0.0103 µM (active) | 0.109 µM (active) | < 0.01 µM (active) | < 0.01 µM (active) | 0.0535 µM (active) | 
CC(C)CC1C(=O)NCCC(NC(=O)C(N)Cc2ccc(O)cc2)C(=O)NC(Cc2ccccc2)C(=O)NC(Cc2ccccc2)NC1=O (configuration not stated) | > 100 µM (inactive) | > 100 µM (inactive) | > 100 µM (inactive) | > 100 µM (inactive) | > 100 µM (inactive) | > 100 µM (inactive) | 0.885 µM (active) | > 100 µM (inactive) | > 100 µM (inactive) | > 100 µM (inactive) | > 100 µM (inactive) |  | > 100 | > 100 µM (inactive) | > 100 µM (inactive) | > 100 µM (inactive) | > 100 µM (inactive) | > 100 µM (inactive) | 72.9 µM (inactive) | 
CC(=O)CC(=O)ON(C)C(C)=O | > 100 µM (inactive) |  | > 100 µM (inactive) | > 100 µM (inactive) | > 100 µM (inactive) | > 100 µM (inactive) |  | > 100 µM (inactive) | > 100 µM (inactive) | > 100 µM (inactive) |  | > 100 µM (inactive) |  | > 100 µM (inactive) | > 100 µM (inactive) | > 100 µM (inactive) | 43.4 µM (inactive) | > 100 µM (inactive) |  | > 100 µM (inactive)
